PubChem BioAssay (NCI)
“And” between values parts separate entries of the source, which are not always exact repeats. Identical values can stand only once.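 Cells were grown in 96-well plates and exposed to each compound for 48 hours at five concentrations; endpoints were interpolated linearly between bracketing concentrations, or set to the highest concentration if not reached. GI50 = concentration required for 50% inhibition of growth. TGI: total growth inhibition.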

Legend:
Experiment in all cases: growth of human tumour cells (NCI), 48 h; in the data active = GI50 below about 0.43 µM; inactive = the rest
ACHN renal = system: ACHN renal
HCT-15 colon = system: HCT-15 colon
SR leukemia = system: SR leukemia
NCI-H460 lung = system: NCI-H460 lung
SF-295 CNS = system: SF-295 CNS
SN12C renal = system: SN12C renal
NCI-H522 lung = system: NCI-H522 lung
TK-10 renal = system: TK-10 renal
SK-MEL-5 melanoma = system: SK-MEL-5 melanoma
OVCAR-3 ovarian = system: OVCAR-3 ovarian

COc1cccc(-c2nc3sccn3c2-c2ccnc(NCCNS(=O)(=O)c3ccccc3)c2)c1
> 100 µM: TGI (ACHN renal) | TGI (HCT-15 colon) | TGI (SR leukemia) | TGI (NCI-H460 lung) | TGI (SF-295 CNS) | TGI (SN12C renal) | TGI (OVCAR-3 ovarian)
57.2 µM: TGI (TK-10 renal)
4.89 µM: TGI (SK-MEL-5 melanoma)
inactive: GI50 (ACHN renal) 2.22 µM | GI50 (HCT-15 colon) 2.55 µM | GI50 (SR leukemia) 3.21 µM | GI50 (NCI-H460 lung) 3.47 µM | GI50 (SF-295 CNS) 2.62 µM | GI50 (SN12C renal) 2.91 µM | GI50 (NCI-H522 lung) 2.26 µM | GI50 (TK-10 renal) 3.58 µM | GI50 (SK-MEL-5 melanoma) 1.53 µM | GI50 (OVCAR-3 ovarian) 3.15 µM
27.6 µM: TGI (NCI-H522 lung)

Nc1cc(-c2cccc(OC(F)(F)F)c2)nc2ccc(N3CCCC3)cc12
active: GI50 (ACHN renal) 0.0903 µM and 0.101 µM and 0.107 µM | GI50 (HCT-15 colon) 0.0338 µM and 0.0349 µM and 0.0312 µM | GI50 (SR leukemia) 0.0275 µM and 0.0154 µM and 0.0135 µM | GI50 (NCI-H460 lung) 0.0354 µM and 0.0359 µM | GI50 (SF-295 CNS) 0.0584 µM and 0.0473 µM and 0.0448 µM | GI50 (SN12C renal) 0.113 µM and 0.0716 µM and 0.0692 µM | GI50 (NCI-H522 lung) 0.0394 µM and 0.0351 µM and 0.0297 µM | GI50 (SK-MEL-5 melanoma) 0.042 µM and 0.0394 µM and 0.0348 µM | GI50 (OVCAR-3 ovarian) 0.0318 µM and 0.0288 µM and 0.0273 µM
inactive: GI50 (TK-10 renal) 9.57 µM and 13 µM and > 23.5 µM
19.7 µM and > 100 µM: TGI (SN12C renal)
12.5 µM and > 100 µM: TGI (NCI-H460 lung)
34.6 µM and > 100 µM: TGI (TK-10 renal)
11.5 µM and > 100 µM: TGI (HCT-15 colon)
5.61 µM and 18.9 µM and > 50.5 µM: TGI (SF-295 CNS)
0.621 µM and 0.67 µM and 0.361 µM: TGI (SK-MEL-5 melanoma)
0.986 µM: TGI (NCI-H522 lung)
26 µM and > 100 µM: TGI (ACHN renal)

COC(=O)C12CC3CC(C1)CC(C(=O)OC)(C3)C2
> 100 µM: TGI (ACHN renal) | TGI (HCT-15 colon) | TGI (SR leukemia) | TGI (NCI-H460 lung) | TGI (SF-295 CNS) | TGI (SN12C renal) | TGI (NCI-H522 lung) | TGI (TK-10 renal) | TGI (SK-MEL-5 melanoma) | TGI (OVCAR-3 ovarian)

C=CCN1C=CC(=O)[C@H](O[Si](C)(C)C(C)(C)C)[C@@H]1/C=C/c1ccccc1
27.3 µM: TGI (SN12C renal)
25.6 µM: TGI (HCT-15 colon)
27.8 µM: TGI (OVCAR-3 ovarian)
29.2 µM: TGI (ACHN renal)
inactive: GI50 (ACHN renal) 15.5 µM | GI50 (HCT-15 colon) 12.5 µM | GI50 (SR leukemia) 5.21 µM | GI50 (NCI-H460 lung) 8.38 µM | GI50 (SF-295 CNS) 9.9 µM | GI50 (SN12C renal) 13.8 µM | GI50 (NCI-H522 lung) 13 µM | GI50 (TK-10 renal) 14 µM | GI50 (SK-MEL-5 melanoma) 7.33 µM | GI50 (OVCAR-3 ovarian) 14 µM
20 µM: TGI (SK-MEL-5 melanoma)
26.1 µM: TGI (SR leukemia)
24.9 µM: TGI (SF-295 CNS)
28.3 µM: TGI (NCI-H522 lung)
23.8 µM: TGI (NCI-H460 lung)
28.5 µM: TGI (TK-10 renal)

CCN=c1cc2sc3cc(NCC)c(C)cc3nc-2cc1C
active: GI50 (NCI-H522 lung) 0.419 µM | GI50 (OVCAR-3 ovarian) 0.149 µM
1.93 µM: TGI (SK-MEL-5 melanoma)
2.61 µM: TGI (NCI-H522 lung)
9.51 µM: TGI (HCT-15 colon)
10.6 µM: TGI (ACHN renal)
> 100 µM: TGI (SR leukemia)
12.5 µM: TGI (SN12C renal)
6.94 µM: TGI (TK-10 renal)
inactive: GI50 (ACHN renal) 1.58 µM | GI50 (HCT-15 colon) 0.489 µM | GI50 (SR leukemia) 1.01 µM | GI50 (NCI-H460 lung) 0.821 µM | GI50 (SF-295 CNS) 0.669 µM | GI50 (SN12C renal) 1.5 µM | GI50 (TK-10 renal) 2.04 µM | GI50 (SK-MEL-5 melanoma) 0.475 µM
0.714 µM: TGI (OVCAR-3 ovarian)
4.81 µM: TGI (SF-295 CNS)
5 µM: TGI (NCI-H460 lung)

CN1CCCCCC(=N\O)/C(=N/O)CCCCC1
> 100 µM: TGI (ACHN renal) | TGI (HCT-15 colon) | TGI (SR leukemia) | TGI (NCI-H460 lung) | TGI (SF-295 CNS) | TGI (SN12C renal) | TGI (NCI-H522 lung) | TGI (TK-10 renal) | TGI (SK-MEL-5 melanoma) | TGI (OVCAR-3 ovarian)

C=CCN(CC=C)C(=O)c1cc(C)nc2c1c(=O)n(-c1ccccc1)c(=O)n2CC(O)CN1CCN(c2ncccn2)CC1 (configuration not stated)
> 100 µM: TGI (ACHN renal) | TGI (HCT-15 colon) | TGI (SR leukemia) | TGI (NCI-H460 lung) | TGI (SF-295 CNS) | TGI (SN12C renal) | TGI (NCI-H522 lung) | TGI (TK-10 renal) | TGI (SK-MEL-5 melanoma) | TGI (OVCAR-3 ovarian)
inactive: GI50 (ACHN renal) > 100 µM | GI50 (HCT-15 colon) > 100 µM | GI50 (SR leukemia) > 100 µM | GI50 (NCI-H460 lung) 26.7 µM | GI50 (SF-295 CNS) > 100 µM | GI50 (SN12C renal) > 100 µM | GI50 (NCI-H522 lung) > 100 µM | GI50 (TK-10 renal) > 100 µM | GI50 (SK-MEL-5 melanoma) > 100 µM | GI50 (OVCAR-3 ovarian) > 100 µM

O=[N+]([O-])c1ccc(N=Nc2c(O)ccc3ccccc23)cc1
> 100 µM: TGI (ACHN renal) | TGI (HCT-15 colon) | TGI (SR leukemia) | TGI (NCI-H460 lung) | TGI (SF-295 CNS) | TGI (SN12C renal) | TGI (NCI-H522 lung) | TGI (TK-10 renal) | TGI (SK-MEL-5 melanoma) | TGI (OVCAR-3 ovarian)
inactive: GI50 (ACHN renal) 31.3 µM and > 100 µM | GI50 (SF-295 CNS) 29.8 µM and > 100 µM | GI50 (NCI-H522 lung) 35.9 µM | GI50 (TK-10 renal) 28 µM and > 100 µM

Cc1cc(-c2nnc(N)nc2-c2ccc(F)cc2)cc(Cl)n1
> 100 µM: TGI (ACHN renal) | TGI (HCT-15 colon) | TGI (SR leukemia) | TGI (NCI-H460 lung) | TGI (SF-295 CNS) | TGI (SN12C renal) | TGI (NCI-H522 lung) | TGI (TK-10 renal) | TGI (SK-MEL-5 melanoma) | TGI (OVCAR-3 ovarian)
inactive: GI50 (ACHN renal) 73.3 µM | GI50 (HCT-15 colon) > 100 µM | GI50 (SR leukemia) 64 µM | GI50 (NCI-H460 lung) > 100 µM | GI50 (SF-295 CNS) 72.7 µM | GI50 (SN12C renal) > 100 µM | GI50 (NCI-H522 lung) 55.9 µM | GI50 (TK-10 renal) 42.6 µM | GI50 (SK-MEL-5 melanoma) 25.5 µM | GI50 (OVCAR-3 ovarian) > 100 µM

Cc1cccc(Cl)c1NC(=O)/C=C/c1ccccc1
> 100 µM: TGI (ACHN renal) | TGI (HCT-15 colon) | TGI (SR leukemia) | TGI (NCI-H460 lung) | TGI (SF-295 CNS) | TGI (SN12C renal) | TGI (NCI-H522 lung) | TGI (TK-10 renal) | TGI (SK-MEL-5 melanoma) | TGI (OVCAR-3 ovarian)

O=C(Nc1cc[c]([Sb](=[O])([OH])[OH])cc1)c1ccccc1
> 100 µM: TGI (ACHN renal) | TGI (HCT-15 colon) | TGI (SR leukemia) | TGI (NCI-H460 lung) | TGI (SF-295 CNS) | TGI (SN12C renal) | TGI (NCI-H522 lung) | TGI (TK-10 renal) | TGI (SK-MEL-5 melanoma) | TGI (OVCAR-3 ovarian)
inactive: GI50 (ACHN renal) > 100 µM | GI50 (HCT-15 colon) > 100 µM | GI50 (SR leukemia) > 100 µM | GI50 (NCI-H460 lung) > 100 µM | GI50 (SF-295 CNS) > 100 µM | GI50 (SN12C renal) > 100 µM | GI50 (NCI-H522 lung) > 100 µM | GI50 (TK-10 renal) > 100 µM | GI50 (SK-MEL-5 melanoma) > 100 µM | GI50 (OVCAR-3 ovarian) > 100 µM

COC(=O)C12C3C4C5C3(C#N)C1C5(C(=O)OC)C42C(=O)N(C(C)C)C(C)C (configuration not stated)
> 100 µM: TGI (ACHN renal) | TGI (NCI-H460 lung) | TGI (SF-295 CNS) | TGI (SN12C renal) | TGI (TK-10 renal) | TGI (SK-MEL-5 melanoma) | TGI (OVCAR-3 ovarian)
> 53.4 µM: TGI (NCI-H522 lung)
> 60.4 µM: TGI (HCT-15 colon)
33.3 µM: TGI (SR leukemia)

COc1cc(C(c2cc3c(cc2O)OCO3)N2CCCCC2)cc(OC)c1OC (configuration not stated)
31.2 µM: TGI (TK-10 renal)
> 23.5 µM: TGI (SR leukemia)
26.9 µM: TGI (OVCAR-3 ovarian)
26.7 µM: TGI (NCI-H522 lung)
> 100 µM: TGI (SF-295 CNS)
31.1 µM: TGI (ACHN renal)
34.6 µM: TGI (SK-MEL-5 melanoma)
25.1 µM: TGI (SN12C renal)
45.8 µM: TGI (NCI-H460 lung)
30.8 µM: TGI (HCT-15 colon)

COc1ccc(-c2nc3ncccn3c2/C=C/C(=O)c2cc(OC)c(OC)c(OC)c2)cc1
> 100 µM: TGI (SR leukemia)
4.79 µM: TGI (OVCAR-3 ovarian)
2.87 µM: TGI (SK-MEL-5 melanoma)
4.83 µM: TGI (SF-295 CNS)
3.94 µM: TGI (HCT-15 colon)
2.74 µM: TGI (NCI-H460 lung)
3.17 µM: TGI (ACHN renal)
10.4 µM: TGI (TK-10 renal)
3.89 µM: TGI (NCI-H522 lung)
inactive: GI50 (ACHN renal) 1.57 µM | GI50 (HCT-15 colon) 1.38 µM | GI50 (SR leukemia) 1.53 µM | GI50 (NCI-H460 lung) 1.43 µM | GI50 (SF-295 CNS) 2.39 µM | GI50 (SN12C renal) 2.56 µM | GI50 (NCI-H522 lung) 1.66 µM | GI50 (TK-10 renal) 2.88 µM | GI50 (SK-MEL-5 melanoma) 1.52 µM | GI50 (OVCAR-3 ovarian) 1.75 µM
35.1 µM: TGI (SN12C renal)
